Measurements from PubChem BioAssay (NCI).
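Method: 48-hour compound exposure of cells in 96-well plates, five concentrations, linear interpolation of endpoints. TGI denotes the concentration required for complete inhibition of growth.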

How the values were obtained:
Test in all cases: NCI-60 cell line screen, 48 h
786-0 renal = tested on: 786-0 renal
A498 renal = tested on: A498 renal
A549 NSCLC = tested on: A549 NSCLC
ACHN renal = tested on: ACHN renal
BT-549 breast = tested on: BT-549 breast
CAKI-1 renal = tested on: CAKI-1 renal
CCRF-CEM leukemia = tested on: CCRF-CEM leukemia
COLO 205 colon = tested on: COLO 205 colon
DU-145 prostate = tested on: DU-145 prostate
EKVX NSCLC = tested on: EKVX NSCLC
HCC-2998 colon = tested on: HCC-2998 colon
HCT-116 colon = tested on: HCT-116 colon
HCT-15 colon = tested on: HCT-15 colon
HL-60(TB) leukemia = tested on: HL-60(TB) leukemia
HOP-92 NSCLC = tested on: HOP-92 NSCLC
HS 578T breast = tested on: HS 578T breast
IGROV1 ovarian = tested on: IGROV1 ovarian
K-562 leukemia = tested on: K-562 leukemia
KM12 colon = tested on: KM12 colon
LOX IMVI melanoma = tested on: LOX IMVI melanoma
M14 melanoma = tested on: M14 melanoma
MALME-3M melanoma = tested on: MALME-3M melanoma
MCF7 breast = tested on: MCF7 breast
MDA-MB-231 breast = tested on: MDA-MB-231 breast
MDA-MB-435 = tested on: MDA-MB-435
MDA-N = tested on: MDA-N
MOLT-4 leukemia = tested on: MOLT-4 leukemia
NCI-H226 lung = tested on: NCI-H226 lung
NCI-H460 lung = tested on: NCI-H460 lung
NCI-H522 lung = tested on: NCI-H522 lung
NCI/ADR-RES ovarian = tested on: NCI/ADR-RES ovarian
OVCAR-3 ovarian = tested on: OVCAR-3 ovarian
OVCAR-4 ovarian = tested on: OVCAR-4 ovarian
OVCAR-5 ovarian = tested on: OVCAR-5 ovarian
OVCAR-8 ovarian = tested on: OVCAR-8 ovarian
PC-3 prostate = tested on: PC-3 prostate
RPMI-8226 leukemia = tested on: RPMI-8226 leukemia
RXF 393 renal = tested on: RXF 393 renal
SF-268 CNS = tested on: SF-268 CNS
SF-295 CNS = tested on: SF-295 CNS
SF-539 CNS = tested on: SF-539 CNS
SK-MEL-2 melanoma = tested on: SK-MEL-2 melanoma
SK-MEL-28 melanoma = tested on: SK-MEL-28 melanoma
SK-MEL-5 melanoma = tested on: SK-MEL-5 melanoma
SN12C renal = tested on: SN12C renal
SNB-19 CNS = tested on: SNB-19 CNS
SNB-75 CNS = tested on: SNB-75 CNS
SR leukemia = tested on: SR leukemia
SW-620 colon = tested on: SW-620 colon
T-47D breast = tested on: T-47D breast
TK-10 renal = tested on: TK-10 renal
U251 CNS = tested on: U251 CNS
UACC-257 melanoma = tested on: UACC-257 melanoma
UACC-62 melanoma = tested on: UACC-62 melanoma
UO-31 renal = tested on: UO-31 renal
DLD-1 colon = tested on: DLD-1 colon
DMS 114 small cell lung = tested on: DMS 114 small cell lung
DMS 273 small cell lung = tested on: DMS 273 small cell lung
HOP-62 NSCLC = tested on: HOP-62 NSCLC
HT29 colon = tested on: HT29 colon
KM20L2 colon = tested on: KM20L2 colon
LXFL 529 NSCLC = tested on: LXFL 529 NSCLC
M19-MEL melanoma = tested on: M19-MEL melanoma
NCI-H23 lung = tested on: NCI-H23 lung
SK-OV-3 ovarian = tested on: SK-OV-3 ovarian
SNB-78 CNS = tested on: SNB-78 CNS

## COC(=O)c1ccccc1/C=C1\Cc2ccc3ccccc3c2C1C (stereo not given)
786-0 renal
  TGI: > 100 µM
A498 renal
  TGI: > 100 µM
A549 NSCLC
  TGI: > 100 µM
ACHN renal
  TGI: > 100 µM
BT-549 breast
  TGI: > 100 µM
CAKI-1 renal
  TGI: > 100 µM
CCRF-CEM leukemia
  TGI: > 100 µM
COLO 205 colon
  TGI: > 100 µM
DU-145 prostate
  TGI: > 100 µM
EKVX NSCLC
  TGI: > 100 µM
HCC-2998 colon
  TGI: > 100 µM
HCT-116 colon
  TGI: 46.1 µM
HCT-15 colon
  TGI: > 100 µM
HL-60(TB) leukemia
  TGI: > 100 µM
HOP-92 NSCLC
  TGI: > 100 µM
HS 578T breast
  TGI: > 100 µM
IGROV1 ovarian
  TGI: > 100 µM
K-562 leukemia
  TGI: > 100 µM
KM12 colon
  TGI: > 100 µM
LOX IMVI melanoma
  TGI: > 100 µM
M14 melanoma
  TGI: > 100 µM
MALME-3M melanoma
  TGI: > 100 µM
MCF7 breast
  TGI: > 100 µM
MDA-MB-231 breast
  TGI: > 100 µM
MDA-MB-435
  TGI: > 100 µM
MDA-N
  TGI: > 100 µM
MOLT-4 leukemia
  TGI: > 100 µM
NCI-H226 lung
  TGI: > 100 µM
NCI-H460 lung
  TGI: > 100 µM
NCI-H522 lung
  TGI: > 100 µM
NCI/ADR-RES ovarian
  TGI: > 100 µM
OVCAR-3 ovarian
  TGI: > 100 µM
OVCAR-4 ovarian
  TGI: > 100 µM
OVCAR-5 ovarian
  TGI: > 100 µM
OVCAR-8 ovarian
  TGI: > 100 µM
PC-3 prostate
  TGI: > 100 µM
RPMI-8226 leukemia
  TGI: > 100 µM
RXF 393 renal
  TGI: > 100 µM
SF-268 CNS
  TGI: > 100 µM
SF-295 CNS
  TGI: > 100 µM
SF-539 CNS
  TGI: > 100 µM
SK-MEL-2 melanoma
  TGI: > 100 µM
SK-MEL-28 melanoma
  TGI: > 100 µM
SK-MEL-5 melanoma
  TGI: 64.5 µM
SN12C renal
  TGI: > 100 µM
SNB-19 CNS
  TGI: > 100 µM
SNB-75 CNS
  TGI: > 100 µM
SR leukemia
  TGI: > 100 µM
SW-620 colon
  TGI: > 100 µM
T-47D breast
  TGI: 69 µM
TK-10 renal
  TGI: > 100 µM
U251 CNS
  TGI: > 100 µM
UACC-257 melanoma
  TGI: > 100 µM
UACC-62 melanoma
  TGI: > 100 µM
UO-31 renal
  TGI: > 100 µM

## Cn1c(=O)c(C(=O)NC23CC4CC(CC(C4)C2)C3)c(O)c2ccccc21
786-0 renal
  TGI: 30.3 µM
A549 NSCLC
  TGI: > 100 µM
ACHN renal
  TGI: 42.9 µM
CCRF-CEM leukemia
  TGI: > 100 µM
COLO 205 colon
  TGI: > 100 µM
DLD-1 colon
  TGI: > 100 µM
DMS 114 small cell lung
  TGI: > 100 µM
DMS 273 small cell lung
  TGI: 64.3 µM
EKVX NSCLC
  TGI: > 100 µM
HCT-116 colon
  TGI: 57.9 µM
HCT-15 colon
  TGI: > 100 µM
HL-60(TB) leukemia
  TGI: > 100 µM
HOP-62 NSCLC
  TGI: 43.6 µM
HT29 colon
  TGI: 48.1 µM
IGROV1 ovarian
  TGI: 95.6 µM
K-562 leukemia
  TGI: > 100 µM
KM12 colon
  TGI: > 100 µM
KM20L2 colon
  TGI: > 100 µM
LOX IMVI melanoma
  TGI: > 100 µM
LXFL 529 NSCLC
  TGI: > 100 µM
M14 melanoma
  TGI: > 100 µM
M19-MEL melanoma
  TGI: > 100 µM
MALME-3M melanoma
  TGI: 44.7 µM
MOLT-4 leukemia
  TGI: > 100 µM
NCI-H226 lung
  TGI: 48.4 µM
NCI-H23 lung
  TGI: > 100 µM
NCI-H460 lung
  TGI: 51.1 µM
NCI-H522 lung
  TGI: > 100 µM
OVCAR-3 ovarian
  TGI: 63 µM
OVCAR-8 ovarian
  TGI: 64.1 µM
RPMI-8226 leukemia
  TGI: > 100 µM
RXF 393 renal
  TGI: 35.9 µM
SF-268 CNS
  TGI: > 100 µM
SF-295 CNS
  TGI: 57.4 µM
SF-539 CNS
  TGI: > 100 µM
SK-MEL-28 melanoma
  TGI: > 100 µM
SK-OV-3 ovarian
  TGI: 73.4 µM
SN12C renal
  TGI: 54.8 µM
SNB-19 CNS
  TGI: 43.9 µM
SNB-75 CNS
  TGI: 83.8 µM
SNB-78 CNS
  TGI: > 100 µM
SR leukemia
  TGI: > 100 µM
SW-620 colon
  TGI: > 100 µM
TK-10 renal
  TGI: 48 µM
U251 CNS
  TGI: 59.7 µM
UACC-257 melanoma
  TGI: > 100 µM
UACC-62 melanoma
  TGI: > 100 µM
UO-31 renal
  TGI: > 100 µM

## O=S(=O)(c1ccc2ccccc2c1)N1CCN(S(=O)(=O)c2ccc3ccccc3c2)CC1
786-0 renal
  TGI: > 100 µM
A498 renal
  TGI: > 100 µM
A549 NSCLC
  TGI: > 100 µM
ACHN renal
  TGI: > 100 µM
BT-549 breast
  TGI: > 100 µM
CAKI-1 renal
  TGI: > 100 µM
CCRF-CEM leukemia
  TGI: > 100 µM
COLO 205 colon
  TGI: > 100 µM
DU-145 prostate
  TGI: > 100 µM
EKVX NSCLC
  TGI: > 100 µM
HCC-2998 colon
  TGI: > 100 µM
HCT-116 colon
  TGI: > 100 µM
HCT-15 colon
  TGI: > 100 µM
HL-60(TB) leukemia
  TGI: > 100 µM
HOP-62 NSCLC
  TGI: > 100 µM
HOP-92 NSCLC
  TGI: > 100 µM
HS 578T breast
  TGI: > 100 µM
HT29 colon
  TGI: > 100 µM
IGROV1 ovarian
  TGI: > 100 µM
K-562 leukemia
  TGI: > 100 µM
KM12 colon
  TGI: > 100 µM
LOX IMVI melanoma
  TGI: > 100 µM
M14 melanoma
  TGI: > 100 µM
MALME-3M melanoma
  TGI: > 100 µM
MCF7 breast
  TGI: > 100 µM
MDA-MB-231 breast
  TGI: > 100 µM
MDA-MB-435
  TGI: > 100 µM
MDA-N
  TGI: > 100 µM
NCI-H226 lung
  TGI: > 100 µM
NCI-H23 lung
  TGI: > 100 µM
NCI-H460 lung
  TGI: > 100 µM
NCI-H522 lung
  TGI: > 100 µM
NCI/ADR-RES ovarian
  TGI: > 100 µM
OVCAR-3 ovarian
  TGI: > 100 µM
OVCAR-4 ovarian
  TGI: > 100 µM
OVCAR-5 ovarian
  TGI: > 100 µM
OVCAR-8 ovarian
  TGI: > 100 µM
PC-3 prostate
  TGI: > 100 µM
RPMI-8226 leukemia
  TGI: > 100 µM
RXF 393 renal
  TGI: > 100 µM
SF-268 CNS
  TGI: > 100 µM
SF-295 CNS
  TGI: > 100 µM
SK-MEL-2 melanoma
  TGI: > 100 µM
SK-MEL-28 melanoma
  TGI: > 100 µM
SK-MEL-5 melanoma
  TGI: > 100 µM
SK-OV-3 ovarian
  TGI: > 100 µM
SN12C renal
  TGI: > 100 µM
SNB-19 CNS
  TGI: > 100 µM
SNB-75 CNS
  TGI: 60 µM
SR leukemia
  TGI: > 100 µM
SW-620 colon
  TGI: > 100 µM
T-47D breast
  TGI: > 100 µM
TK-10 renal
  TGI: > 100 µM
U251 CNS
  TGI: > 100 µM
UACC-257 melanoma
  TGI: > 100 µM
UACC-62 melanoma
  TGI: > 100 µM
UO-31 renal
  TGI: > 100 µM

## CCCC(=O)OC1C(C2COC(C)(C)O2)OC2OC(C)(C)OC21 (stereo not given)
A498 renal
  TGI: > 100 µM
ACHN renal
  TGI: > 100 µM
CCRF-CEM leukemia
  TGI: > 100 µM
DMS 114 small cell lung
  TGI: > 100 µM
DMS 273 small cell lung
  TGI: > 100 µM
EKVX NSCLC
  TGI: > 100 µM
HCT-116 colon
  TGI: > 100 µM
HL-60(TB) leukemia
  TGI: > 100 µM
HOP-62 NSCLC
  TGI: > 100 µM
HOP-92 NSCLC
  TGI: > 100 µM
HT29 colon
  TGI: > 100 µM
IGROV1 ovarian
  TGI: > 100 µM
K-562 leukemia
  TGI: > 100 µM
KM12 colon
  TGI: > 100 µM
KM20L2 colon
  TGI: > 100 µM
M14 melanoma
  TGI: > 100 µM
M19-MEL melanoma
  TGI: > 100 µM
MOLT-4 leukemia
  TGI: > 100 µM
NCI-H23 lung
  TGI: > 100 µM
NCI-H460 lung
  TGI: > 100 µM
NCI-H522 lung
  TGI: > 100 µM
OVCAR-5 ovarian
  TGI: > 100 µM
OVCAR-8 ovarian
  TGI: > 100 µM
RXF 393 renal
  TGI: > 100 µM
SF-295 CNS
  TGI: > 100 µM
SK-MEL-28 melanoma
  TGI: > 100 µM
SK-OV-3 ovarian
  TGI: > 100 µM
SNB-19 CNS
  TGI: > 100 µM
SNB-78 CNS
  TGI: > 100 µM
SR leukemia
  TGI: > 100 µM
TK-10 renal
  TGI: > 100 µM
U251 CNS
  TGI: > 100 µM
UACC-257 melanoma
  TGI: > 100 µM
UACC-62 melanoma
  TGI: > 100 µM
UO-31 renal
  TGI: > 100 µM
